Assay results as given in patent US20240173432A1, “Compositions and Methods for Treatment of Myotonic Dystrophy Type 1 with CRISPR/SluCas9” (Vertex Pharmaceuticals Incorporated, priority 2021, published 2024).

How the values were obtained:
[1] = tested on: CUG foci in primary DM1 patient myoblasts; experiment: Dual-cut screening: FISH staining of CUG RNA foci; format: cell-based, human; conditions: sgRNA pair, primary DM1 patient myoblasts; for % of CUG foci free nuclei (DNA-PKi): 3 μM DNA-PKi Compound 6 for 48 hours; for % of CUG foci free nuclei (Vehicle): vehicle (DMSO)
Outline: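 SluCas9 RNPs (protein:sgRNA 1:3; 20 pmol SluCas9 + 60 pmol sgRNA per guide, paired 1:1) nucleofected into primary DM1 patient myoblasts, then DMSO or 3 μM DNA-PKi Compound 6 for 48 h. At 72 h post-nucleofection cells fixed, FISH-stained with Cy3-PNA(CAG)5 probe plus anti-MBNL1 and Hoechst; % CUG foci-free nuclei by high-content confocal imaging.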

[2] = tested on: CTG repeat in the 3′ UTR of human DMPK gene; experiment: Dual-cut screening: CTG repeat excision efficiency by loss-of-signal ddPCR; format: cell-based; conditions: sgRNA pair, primary DM1 patient myoblasts; for Excision efficiency (by ddPCR): 3 μM DNA-PKi Compound 6 for 48 hours; for Excision efficiency by ddPCR (Vehicle): vehicle (DMSO)
Experimental: RNPs were assembled with recombinant SluCas9 protein and chemically modified sgRNAs at a ratio of 1:3 (protein:sgRNA). For SINGLE-cut screening, RNP complexes were assembled with 30 pmol of SluCas9 and 90 pmol of sgRNA in P5 Primary Cell Nucleofector Solution (Lonza). After incubation at room temperature for 20 minutes, 10 μL of RNP complex were mixed with two hundred thousand of primary myoblasts resuspended in 10 μL of P5 Nucleofector Solution. For DOUBLE-cut screening, RNP complexes were first assembled for individual sgRNAs with 20 pmol of SluCas9 protein and 60 pmol of sgRNAs in 5 μL of P5 Nucleofector Solution. After incubation at room temperature for 20 minutes, the two RNP complexes (one for upstream sgRNA and one for downstream sgRNA) were mixed at 1:1 ratio and then further mixed with two hundred thousand of primary myoblasts resuspended in 10 μL of P5 Nucleofector Solution.
The Nucleofector 96-well Shuttle System (Lonza) was used to deliver the SluCa9/sgRNA RNPs into primary DM1 patient myoblasts using the nucleofection program CM138. Following nucleofection, myoblasts from each well of nucleofection shuttle were split into six wells of the 96-well cell culture plate (Greiner, 655090) coated with matrigel. The first three wells were treated with DMSO for 48 hrs before changing to fresh myoblast growth medium, and the other three wells were treated with 3 μM of DNA-PKi Compound 6 for 48 hrs before changing to fresh myoblast growth medium. 72 hrs post nucleofection, two wells of DMSO-treated myoblasts and two wells of DNA-PKi-treated myoblasts from each nucleofection were harvested for genomic DNA extraction using the Kingfisher Flex purification system (Thermal Fisher), whereas one well of DMSO-treated myoblasts and one well of DNA-PKi-treated myoblasts were stained for RNA foci by FISH staining.
The primers and probes of ddPCR are designed using the online primer design software Primer3Plus (http://www.bioinformatics.nl/cgi-bin/primer3plus/primer3plus.cgi). In some embodiments, two target primers/probe sets were used to detect CTG repeat excision, and a reference primers/probe set were used to amplify a region located in Exon 1 of human DMPK gene and to serve as a reference control for the target sets. The 24 μL of ddPCR reaction consists of 12 μL of Supermix for Probes (no dUTP) (Bio-Rad Laboratories), 1 μL of Reference primers mix (21.6 μM), 1 μL of Reference probe (6 μM), 1 μL of Target primers mix (21.6 μM), 1 μL of Target probe (6 μM), and 8 μL of sample genomic DNA. Droplets were generated using probe oil with the QX200 Droplet Generator (Bio-Rad Laboratories). Droplets were transferred to a 96-well PCR plate, sealed and cycled in a C1000 deep well Thermocycler (Bio-Rad Laboratories) under the following cycling protocol: 1 cycle at 95° C. for 10 min; 40 cycles of 94° C. for 30 see, and 58° C. for 1 min; 1 cycle at 98° C. for 10 min (for enzyme inactivation). The cycled plate was then transferred and read in the FAM and HEX channels using the Bio-Rad QX200 Droplet Reader (Bio-Rad Laboratories). ddPCR analysis is performed with the Bio-Rad QuantaSoft Pro Software.
To assess the efficiency of SluCas9 sgRNA pairs for inducing CTG repeat excision, Dual-cut screening was performed in which individual SluCas9 sgRNAs and recombinant SluCas9 protein were assembled into ribonucleoprotein (RNP) and delivered into primary DM1 patient myoblasts. Nucleofected myoblasts were treated with either DMSO (vehicle) or 3 μM of DNA-dependent Protein Kinase Inhibitor (DNA-PKi) Compound 6 for 48 hours. 72 hours post-nucleofection, myoblasts were subjected to either genomic DNA isolation or RNA foci staining by fluorescence in situ hybridization (FISH).
CRISPR repeat excision efficiency was assessed for each of the 88 pairs (FIG. 8A-B and Table 5). CTG repeat excision efficiency percentages are shown for vehicle (DMSO; white bars) and with DNA-PKi (black bars) (FIG. 8B and Table 5).

Substance | % of CUG foci free nuclei (DNA-PKi) [1] [%] | % of CUG foci free nuclei (Vehicle) [1] [%] | Excision efficiency (by ddPCR) [2] | Excision efficiency by ddPCR (Vehicle) [2]
SluU62 + SluD100 (guide 1 AGGACCCTTCGAGCCCCGTTCG; guide 2 GTCCAGAGCTTTGGGCAGATGG; guide RNA; listed as DNA, chemistry not fully specified) | 88.35 | 53.45 | 64.02 | 37.11
SluU59 + SluD48 (guide 1 CGCGGCCGGCGAACGGGGCTCG; guide 2 GAGAGCAGCGCAAGTGAGGAGG; guide RNA; listed as DNA, chemistry not fully specified) | 87.28 | 62.15 | 65.89 | 47.17
SluU59 + SluD73 (guide 1 CGCGGCCGGCGAACGGGGCTCG; guide 2 CCAAAACGTGGATTGGGGTTGT; guide RNA; listed as DNA, chemistry not fully specified) | 87.85 | 59.22 | 64.95 | 42.14
SluU63 + SluD73 (guide 1 GGGGCTCGAAGGGTCCTTGTAG; guide 2 CCAAAACGTGGATTGGGGTTGT; guide RNA; listed as DNA, chemistry not fully specified) | 90.58 | 70.03 | 95.51 | 63.27
SluU59 + SluD83 (guide 1 CGCGGCCGGCGAACGGGGCTCG; guide 2 GTGGGGACAGACAATAAATACC; guide RNA; listed as DNA, chemistry not fully specified) | 90.49 | 64.61 | 64.95 | 49.18
SluU06 + SluD32 (guide 1 TGTCTTCGACTCCGGGGCCCCG; guide 2 CTTGTGCATGACGCCCTGCTCT; guide RNA; listed as DNA, chemistry not fully specified) | 89.84 | 67.77 | 73.51 | 50.63
SluU10 + SluD18 (guide 1 CCCGTTGGAAGACTGAGTGCCC; guide 2 TGGAGGATGGAACACGGACGGC; guide RNA; listed as DNA, chemistry not fully specified) | 89.08 | 71.69 | 60.59 | 51.55
SluU21 + SluD83 (guide 1 GCTCGGAGCGGTTGTGAACTGG; guide 2 GTGGGGACAGACAATAAATACC; guide RNA; listed as DNA, chemistry not fully specified) | 89.23 | 51.65 | 63.44 | 37.42
SluU10 + SluD48 (guide 1 CCCGTTGGAAGACTGAGTGCCC; guide 2 GAGAGCAGCGCAAGTGAGGAGG; guide RNA; listed as DNA, chemistry not fully specified) | 88.02 | 69.11 | 62.29 | 44.14
SluU06 + SluD56 (guide 1 TGTCTTCGACTCCGGGGCCCCG; guide 2 CCAGCCGGCTCCGCCCGCTTCG; guide RNA; listed as DNA, chemistry not fully specified) | 85.13 | 47.08 | 54.91 | 31.65
SluU08 + SluD83 (guide 1 GCCCCGTTGGAAGACTGAGTGC; guide 2 GTGGGGACAGACAATAAATACC; guide RNA; listed as DNA, chemistry not fully specified) | 90.38 | 68.14 | 70.46 | 45.64
SluU08 + SluD06 (guide 1 GCCCCGTTGGAAGACTGAGTGC; guide 2 CCAGGCTGAGGCCCTGACGTGG; guide RNA; listed as DNA, chemistry not fully specified) | 86.69 | 59.22 | 59.11 | 46.6
SluU10 + SluD34 (guide 1 CCCGTTGGAAGACTGAGTGCCC; guide 2 CGCGCCAGACGCTCCCCAGAGC; guide RNA; listed as DNA, chemistry not fully specified) | 88.63 | 80.9 | 68.59 | 52.12
SluU63 + SluD34 (guide 1 GGGGCTCGAAGGGTCCTTGTAG; guide 2 CGCGCCAGACGCTCCCCAGAGC; guide RNA; listed as DNA, chemistry not fully specified) | 87.25 | 77.85 | 93.5 | 63.27
SluU10 + SluD14 (guide 1 CCCGTTGGAAGACTGAGTGCCC; guide 2 ATGGGCAAACTGCAGGCCTGGG; guide RNA; listed as DNA, chemistry not fully specified) | 84.04 | 62.95 | 61.58 | 43.14
SluU08 + SluD32 (guide 1 GCCCCGTTGGAAGACTGAGTGC; guide 2 CTTGTGCATGACGCCCTGCTCT; guide RNA; listed as DNA, chemistry not fully specified) | 90.91 | 74.1 | 73.0215 | 50.87
